Assays:
[1] = Intraperitoneal toxicity in mice; assay type: in vivo; conditions: i.p., 36 injections of 0.4 mg over 7 weeks
Procedure: (§1) 3-CPs was also tested intraperitoneally (36 injections of 0.4 mg each over a period of 7 weeks).

[2] = Light sensitivity of the drug in aqueous solution (chromatography, fluorescence spectra); assay type: physicochemical
psoriasis lesions = assay: Treatment of psoriasis patients, 1% 3-CPs ointment plus 365 nm UV; assay type: in vivo; conditions: 1% ointment
Procedure: The effectiveness of thus-obtained 3-CPs was tested on 10 patients having ordinary psoriasis covering from 200 to 400 cm^2 of skin.
Preparation of 1% 3-CPs ointment:
1 g of 3-CPs was ground to a very fine powder and then dispersed in 70 g of "HYDROCERINE" (a commercially-available product manufactured by ROC) at 70° C. 29 ml of water were added at 70° C. in order to obtain an aqueous emulsion in oil.
The irradiation dose at 365 nm UV was of about 5 J/cm^2 per unit treatment and administered using the usual PUVA therapy set-up.

Saccharomyces cerevisiae = assay: Uptake and removal of the drug in yeast (incubation time, washing); assay type: cell-based
Procedure: B--Effects of 365 nm light alone or 3-CPs, uptake and removal of the drug.
Since high doses of 365 nm light are needed to induce a killing effect in Saccharomyces cells in the presence of 3-CPs, the effects of 365 nm light alone were measured for doses up to 7500 J/m^2. It was established that, in the range of doses used for the biological experiments, there was only a small lethal effect of 365 nm light alone. Taking into account the standard errors of the surviving fraction (±10%) and the fact that part of the light energy is absorbed by the drug itself, the effect of 365 nm light alone has been neglected in the experiments.

[3] = tested on: skin of homozygote albino mice strain XVII nc/Z; assay: Chronic topical application on the ears of mice plus 365 nm UV irradiation (tumors, skin reactions); assay type: in vivo
Procedure: The experiments were effected on groups of 40 mice, male and female.
After 115 topical applications of psoralen, followed each time by 10 minutes of irradiation (cumulative doses of 2.07×10^6 J/m^2), 100% of the animals developed a tumor; 50% having tumors on two ears.
as §1
In all these experiments the U.V. lamp was of the type of HPW 125 W, manufactured by Philips.

lymphocytes = conditions: therapeutic treatment; cited from earlier work
skin [4] = conditions: short treatment intervals; cited from earlier work
skin [5] = assay: Erythema, skin injury and tanning on skin of patients; assay type: in vivo; conditions: compared with 8-MOP
Excerpt: In contrast, it has now been discovered that the mono-functional derivatives of formula I provoke absolutely no erythema, neither immediate nor postponed. No skin injury, neither macro- nor microscopic, was observed on patients. It will be readily apparent to men skilled in the art that this property is a very unique one for compounds of the psoralen family. […] Thus, undesirable cosmetic side effects appear to be absent. Consequently, these compounds are of great interest since, in contrast to 8-MOP, they permit subsequent treatment at short-time intervals for example twice a day over prolonged periods of time without any sun-burnlike injury to the skin.

## CCOC(=O)c1cc2cc3ccoc3cc2oc1=O [Example 3-CPs, 3-carboethoxypsoralen]
[1]
  survival: All the animals remained alive
  weight and signs of toxicity: without any decrease in weight or other sign of toxicity
[2]
  light sensitivity: light sensitive
[2]; illuminated aqueous solutions
  photoproduct: highly fluorescent photoproduct with the characteristics of 4',5'-dihydropsoralen
Psoriasis lesions
  erythema or cutaneous inflammation: no erythema or cutaneous inflammation
  speed of action compared with 8-MOP: slower than that of 8-MOP
Saccharomyces cerevisiae
  binding in the dark: very loosely bound in the dark
Saccharomyces cerevisiae; 10 μg/ml, wild-type and rad9-4
  effect after one minute incubation: about the maximum effect
Saccharomyces cerevisiae; 10 μg/ml, wild-type and rad9-4, constant 365 nm dose
  killing and "petite" induction vs incubation time before irradiation: independent of incubation time
Saccharomyces cerevisiae; Saccharomyces
  uptake and washing out compared with 8-MOP: taken up and washed out as readily as 8-MOP
Saccharomyces cerevisiae; doses of 365 nm light used
  sensitizing effect after washing: no sensitizing effect after washing
[3]; 115 applications on two ears, 30 minutes rest, 10 minutes irradiation
  erythema, cutaneous inflammation, tumor: neither erythema nor cutaneous inflammation nor any tumor
[3]; 115 applications, 450 days of observation
  mortality: No animal died
[3]; 450 days of observation
  macroscopic or microscopic reaction: Neither macroscopic nor microscopic reaction was observed

## COc1c2occc2cc2ccc(=O)oc12 [Example 8-MOP, 8-methoxypsoralen, reference compound]
lymphocytes
  lymphocytes in circulating blood: causes a decrease of the lymphocytes in circulating blood
Skin [4]
  erythemal reactions in the skin: can cause violent erythemal reactions in the skin
Skin [5]
  tanning effect: strong tanning effect

Reference: US4260630A, “Skin diseases” (priority 1977, dated 1981)
